Test results: a melting point compilation (Tetko et al.; mined from patent text by program, amines drawn as free bases though some values may be those of a salt)

Compared with `CCCCOCCOc1ccc(-c2ccc(N(C)CCOC)c(C=CC(=O)O)c2)cc1`, `COC(=O)CCC(=O)c1ccc(-c2ccc(C(C)(C)C)cc2)cc1` is lower in melting point: 86.4 to 87.4 °C for the first, 58 to 62 °C for the second.

First: O=C(O)COc1ccc2c(-c3ccc(Cl)cc3)noc2c1Cl
Second: Cc1onc(-c2ccc(Cl)c(Cl)c2)c1-c1ccc(S(N)(=O)=O)cc1
The melting point of the first is higher: 254 to 257 °C for the first, 66 to 71 °C for the second.

First: CCCCCCCC(=O)NCCCCCCO
Second: CCCCCCCCCCCCCCCCCCOC(=O)CP(=O)(OCC)OCC
The melting point of the first is higher: 77 to 78 °C for the first, 28 to 31 °C for the second.

First: Oc1ccc2cnccc2c1
Second: Oc1ccc2c(c1)C(Cc1c[nH]cn1)CC2 (stereo not given)
The melting point of the first is higher: 218 to 220 °C for the first, 206 to 208 °C for the second.

First: CCN1C(=O)C(C)(C)C(=O)N(C)c2cc(CCCN(CCn3ccc4occc4c3=O)Cc3cccnc3C)ccc21
Second: CCN1c2ncc(CNc3cccc(N)c3)cc2C(=O)N(C)c2ccc(Cl)nc21
The melting point of the first is lower: 151 to 155 °C for the first, 188 to 190 °C for the second.

First: Cc1c(C)c2c(c(C)c1NS(C)(=O)=O)C(c1ccc(C(C)C)cc1)CO2 (stereo not given)
Second: Cc1cc(C)c(C2C(=O)C(Cc3ccc(Cl)cc3)N(C)C2=O)c(C)c1 (stereo not given)
The melting point of the first is lower: 132 to 133 °C for the first, over 230 °C for the second.

First: COc1ccc(NC(=O)CCCCCC(C)=O)cc1
Second: COc1ccc(C2=NNC(=O)C(C)C2)cc1 (stereo not given)
The melting point of the first is lower: 106 to 107 °C for the first, 203 to 206 °C for the second.

First: CCOCCOc1cc(OC)c(C(CC(=O)Nc2cc(C(N)=O)ccc2C(C)(C)C)CC(C)C)cc1Cl (stereo not given)
Second: CC(C)(C)OC(=O)COc1cc(NC(=O)OC(C)(C)C)c([N+](=O)[O-])cc1C#Cc1ccccc1
The melting point of the first is higher: 180 to 181 °C for the first, 130 °C for the second.

First: O=[N+]([O-])c1ccc2c(c1)OC(CO)O2 (stereo not given)
Second: CC(=O)c1cc([N+](=O)[O-])ccc1NC(=O)CCl
The melting point of the first is lower: 80 to 82 °C for the first, 162 °C for the second.

Compared with `CCOC(=O)c1cn([C@@H]2C[C@@H]2F)c2c(C)c(F)ccc2c1=O`, `CCOC(=O)c1ccc(Cc2ccc3c(c2)OCO3)o1` is lower in melting point: 187 to 188 °C for the first, 67 to 68 °C for the second.

First: COC(=O)C1CC(=O)C(NC(C)=O)=C(O)C1 (stereo not given)
Second: CCOC(=O)C1COc2c(OC)ccc([N+](=O)[O-])c2C1 (stereo not given)
The melting point of the first is higher: 131 to 132 °C for the first, 66 to 68 °C for the second.

Compared with `CSc1ccc(-c2nc(SC)c(C#N)c(=O)n2-c2ccc(C)cc2C)cc1`, `Cc1cc(C)c(-n2c(C)cc(C)c(C#N)c2=O)cc1N` is higher in melting point: 203 to 205 °C for the first, 218 to 219 °C for the second.

First: Cc1c(NC(=O)c2ccc(OC[C@@H]3CCCO3)cc2)ccc2c1cc(CNC1CCCC1)n2C
Second: O=C(NCCc1cccc2ccc(OC3CCCCC3)cc12)C1CCC1
The melting point of the first is higher: 189 °C for the first, 116 to 118 °C for the second.

First: ClCCOc1cccc2[nH]ccc12
Second: ClCCOc1ccc(OCCCl)c(Cl)c1
The melting point of the first is lower: 60 °C for the first, 135 to 137 °C for the second.

Compared with `NNC(=O)c1cccc(OCc2csc(-c3ccccc3F)n2)c1`, `CNCC1Cc2cc(OC)cc(-c3ccccc3F)c2O1` (stereo not given) is lower in melting point: 143 to 145 °C for the first, 110 to 112 °C for the second.

Compared with `COc1ccc2cc(C#CC(C)N(O)C(N)=O)ccc2c1` (stereo not given), `COC(=O)C1c2ccc(OC)cc2SC1c1ccc(OC)cc1` (stereo not given) is lower in melting point: 181 to 183 °C for the first, 98.3 to 99.8 °C for the second.

First: Cn1cc(-c2nsc(Cl)n2)c2ccccc21
Second: CCCCc1nc(CO)c(Cl)n1Cc1ccccc1
The melting point of the first is higher: 93 to 94 °C for the first, 78 to 80 °C for the second.

First: NS(=O)(=O)c1cc(C(=O)OCC(=O)N2CCC(CO[N+](=O)[O-])CC2)c(NCc2ccco2)cc1Cl
Second: O=c1[nH]c2cc(Cl)c(S(=O)CCN3CCC(Cc4ccc(F)cc4)CC3)cc2o1 (stereo not given)
The melting point of the first is lower: 115 to 117 °C for the first, 199 to 200 °C for the second.

Compared with `CN1CCN(c2ccc(Nc3nc(N)c(C(=O)c4c(Cl)cc(C(F)(F)F)cc4Cl)s3)cc2)CC1`, `c1ccc2c(=Nc3ccncc3)cc3oc4cc(N5CCOCC5)ccc4nc-3c2c1` is higher in melting point: 239 to 240 °C for the first, over 300 °C for the second.

First: CC(=O)Nc1ccccc1N1CCc2ccccc21
Second: Cc1ccc(C(=O)C2Cc3ccccc3C2=O)cc1 (stereo not given)
The melting point of the first is higher: 125 to 128 °C for the first, 103 to 105 °C for the second.

First: COC(C)CCOc1c(-c2ccc(S(C)(=O)=O)cc2)cnn(-c2ccc(F)c(F)c2)c1=O (stereo not given)
Second: CS(=O)(=O)c1ccc(-c2cnn(CC(F)(F)F)c(=O)c2SC2CCCCC2)cc1
The melting point of the first is lower: 99 to 101 °C for the first, 165 to 167 °C for the second.

First: O=C(NC1CCN(CCCc2ccccc2)CC1)C1=Cc2cnc3cccc(n23)S1
Second: O=C(Nc1ccc2cc(CN3CCCC3)cnc2c1)N1CCC(c2ccccc2)CC1
The melting point of the first is lower: 190 to 191 °C for the first, 222 to 224 °C for the second.

First: Brc1ccc2nc(NC3=NCCN3)[nH]c2c1
Second: O=C1CCC2=C1C(c1cccc(Br)c1)C1=C(CCS1)N2 (stereo not given)
The melting point of the first is higher: 264 to 266 °C for the first, 246 °C for the second.

Compared with `COC(=O)c1ccc2c(c1)S(=O)(=O)NCN2C1CC1`, `O=S1(=O)CCc2nn(-c3ccc(Cl)cc3F)c(Cl)c2C1` is lower in melting point: 178 to 180 °C for the first, 141 to 143 °C for the second.

`COC1=C(OC)C(=O)C(CCCCC#CCCCCO)=C(C)C1=O` and `CCCCCCCC1=CC(=O)N(Cc2ccccc2)C1=CBr` cannot be ordered by melting point: 52 to 53 °C for the first, 52 to 55 °C for the second.

Compared with `Cc1cc(SC2CC(=O)N(c3ccccc3)C2=O)cc(C(C)(C)C)c1N` (stereo not given), `C=CCOc1cc(C)ccc1N1C(=O)c2ccccc2C1=O` is lower in melting point: 126 to 128 °C for the first, 122 to 124 °C for the second.

First: COc1cc(OC)c2c(-c3cc(F)cc(F)c3)coc2c1
Second: CCCC(C)(c1ccc(F)cc1)c1cc(O)c2c3c(c(=O)oc2c1)CCC3 (stereo not given)
The melting point of the first is lower: 102 to 103 °C for the first, 133 to 135 °C for the second.

Compared with `Nc1nc2cccnc2c2c1nc(CO)n2CC1(O)CCOCC1`, `Cc1cc(N2CCOCC2)c2cccc(OCc3c(Cl)ccc(-n4cccc4CNC(=O)C=Cc4ccc(C(=O)O)cc4)c3Cl)c2n1` is lower in melting point: over 250 °C for the first, 174 to 180 °C for the second.

First: O=S(=O)(N[C@H]1CC[C@H](CCN2CCN(c3nccc4c3OCC4)CC2)CC1)c1ccc(F)cc1
Second: Clc1cccc2c1Nc1ccccc1N=C2N1CCN(Cc2ccc3c(c2)OCO3)CC1
The melting point of the first is lower: 148 °C for the first, 160 to 162 °C for the second.

First: CS(=O)(=O)c1cc(C(=O)N=C(N)N)ccc1C(F)(F)F
Second: CC(=O)c1ccc(S(=O)(=O)NCC(F)(F)F)cc1
The melting point of the first is lower: 146 to 147 °C for the first, 180 to 181 °C for the second.

First: CC(C)(C)OC(=O)NCCOCCNC1(c2ccccc2Cl)C(=O)Nc2ccc(Cl)cc21 (stereo not given)
Second: CCOc1ccc2c(c1)C(C)(c1ccccc1Cl)C(=O)N2S(=O)(=O)c1ccc(C(=O)NC(C)(C)CF)cc1 (stereo not given)
The melting point of the first is lower: 138 to 140 °C for the first, 182 °C for the second.

First: Cc1cc(Cn2cnc3c2CC(C(=O)O)N(C(=O)C(c2ccccc2)c2ccccc2)C3)ccc1N(C)C (stereo not given)
Second: CN(CC(O)c1cccc(O)c1)C(=O)c1cnc(N(C)C)nc1-c1ccccc1 (stereo not given)
The melting point of the first is lower: 72 to 75 °C for the first, 79 to 81 °C for the second.

First: O=CNc1ccc(OCCNCC(O)c2ccc(O)cc2)cc1 (stereo not given)
Second: Cc1oc(-c2ccccc2)nc1COc1ccc(C(C)CCC2SC(=O)NC2=O)cc1 (stereo not given)
The melting point of the first is higher: 164 to 165 °C for the first, 64 to 65 °C for the second.

Compared with `CC1(C)C(C(=O)O)C1(C)C`, `CC(=O)NCC(=O)N1CC(=O)NC1(C)C` is higher in melting point: 120 °C for the first, 214 to 215 °C for the second.

First: NC(=O)COc1cc(C(F)(F)F)cc(C(F)(F)F)c1
Second: CCCCCC1CCC(c2ccc(-c3cc(F)c(C(F)(F)Oc4cc(F)c(C(F)(F)F)c(F)c4)c(F)c3)c(F)c2)OC1 (stereo not given)
The melting point of the first is higher: 139 to 141 °C for the first, 75 °C for the second.

First: Nc1nc(N)nc(-c2ccc(S(=O)(=O)c3ccccc3)cc2)n1
Second: N#CCn1nc(-c2c(-c3ccccc3)nn3ccccc23)ccc1=O
The melting point of the first is higher: over 250 °C for the first, 218 to 219 °C for the second.

First: CCN(CC)CCC/C=C/c1cc2ncc(C#N)c(Nc3ccc(Sc4nccn4C)c(Cl)c3)c2cc1OC
Second: COc1cc(C(=O)NS(=O)(=O)c2ccccc2Cl)ccc1Cc1c(Cl)n(C)c2ccc(CCNC(=O)N(C)C)cc12
The melting point of the first is higher: 229 to 233 °C for the first, 204 to 206 °C for the second.

Going from `COc1ccc(COc2cccc(C(=O)O)c2OCc2ccc(OC)cc2)cc1` to `Cc1c(OCc2ccccc2)c(=O)ccn1CC(=O)NCCCCNCCCNC(=O)Cn1ccc(=O)c(OCc2ccccc2)c1C`, the melting point falls from 129 °C to 89 °C.

First: Cc1ccc(C(=O)c2ccn(C)c2C)cc1
Second: CNC(=O)c1ccc(-c2cccc(C3=NC(C)(C)Cc4cc(OC)c5c(c43)CC(C)(C)O5)c2)cc1
The melting point of the first is lower: 80 to 82 °C for the first, 242 to 244 °C for the second.

First: N#Cc1cccc(C2=Nc3ccc(C#CC4=CCNCC4)cc3NC(=O)C2)c1
Second: CC1(C#N)C(=O)C2=C(c3ccccc3)NC(=O)C2=C1c1ccccc1 (stereo not given)
The melting point of the first is lower: 184 °C for the first, 299 to 301 °C for the second.

First: CSC1C(=O)Nc2ccc(C3=NNC(=O)SC3)cc21 (stereo not given)
Second: O=C(CCl)Nc1ccc2[nH]c(=O)c3ccccc3c2c1
The melting point of the first is lower: 201 to 204 °C for the first, 300 to 303 °C for the second.

First: CCOC(=O)c1cn(-c2c(O)cccc2O)cn1
Second: [N-]=[N+]=NCc1cc(C(N)C(=O)O)ccc1O (stereo not given)
The melting point of the first is lower: 229 to 230 °C for the first, over 300 °C for the second.

Compared with `CN(C)c1cnc(N)cn1`, `CC(C)(C)NSc1cnccn1` is lower in melting point: 71.5 to 74.2 °C for the first, 44 to 52 °C for the second.

First: CCn1c(COC(=O)OCc2nc(C(C)C)c(Sc3cc(Cl)cc(Cl)c3)n2CC)nc(C(C)C)c1Sc1cc(Cl)cc(Cl)c1
Second: CCCCCCCC(=O)NC(=O)OCc1nc(C(C)C)c(Sc2cc(Cl)cc(Cl)c2)n1CC
The melting point of the first is lower: 73 to 76 °C for the first, 99 to 101 °C for the second.

First: Cc1csc2ccc(CO)cc12
Second: CC1(C)OC(C=Cc2cccc(C#N)c2)=CC1=O
The melting point of the first is lower: 51 to 53 °C for the first, 155 to 157 °C for the second.

Compared with `CCNC(=O)[C@@H]1CCCN1C(=O)[C@H](C)NC(=O)C12CC3CC(CC(C3)C1)C2`, `Brc1ccc(SC23CC4CC(CC(C4)C2)C3)cc1` is higher in melting point: 116 to 118 °C for the first, 121 to 122 °C for the second.

First: C=CCSc1ccc(-c2nc3cnncc3[nH]2)c(OC)c1
Second: CN(Cc1ccccc1Sc1nc2ccccc2[nH]1)c1ccccc1
The melting point of the first is higher: 240 °C for the first, 168 to 169 °C for the second.

Compared with `CC(C)(C)OC(=O)/C=C/c1cc2ncc(C#N)c(Cl)c2s1`, `COC1CSC2=C(SC1)C(OC(=O)N1CCN(C(=O)C(C)C)CC1)N(c1ccc3ccc(Cl)nc3n1)C2=O` (stereo not given) is higher in melting point: 193 to 194 °C for the first, 232 °C for the second.

First: CC(=O)Nc1ccc(C[C@H](NC(=O)N(CCO)CCc2ccccc2)C(=O)NCCN(C)C)cc1
Second: CCCCCCNC(=O)OCCCNC(=O)OC1CCN(C(=O)Oc2ccc(Oc3ccccc3)cc2)CC1
The melting point of the first is higher: 132 to 137 °C for the first, 90 to 92 °C for the second.

First: COC(=O)c1ccc(OCCNC(=O)C2Cc3ccccc3N2S(=O)(=O)c2ccc(-c3cccc(C(F)(F)F)c3)cc2)c(Cl)c1 (stereo not given)
Second: CS(=O)(=O)c1sccc1S(N)(=O)=O
The melting point of the first is lower: 84 to 88 °C for the first, 242 to 244 °C for the second.
